Where only a bound is given, the exact number is not on record here.

The first assay deals with T1, queuine-tRNA ribosyltransferase enzyme complex (hQTRT1:hQTRT2) (Homo sapiens, UniProt Q9BXR0).
T1 construct: polyhistidine tag (N); made in house; host or cells: E. coli BL21(DE3) tgt::Kmr
T1 sequence (Q9BXR0 whole entry): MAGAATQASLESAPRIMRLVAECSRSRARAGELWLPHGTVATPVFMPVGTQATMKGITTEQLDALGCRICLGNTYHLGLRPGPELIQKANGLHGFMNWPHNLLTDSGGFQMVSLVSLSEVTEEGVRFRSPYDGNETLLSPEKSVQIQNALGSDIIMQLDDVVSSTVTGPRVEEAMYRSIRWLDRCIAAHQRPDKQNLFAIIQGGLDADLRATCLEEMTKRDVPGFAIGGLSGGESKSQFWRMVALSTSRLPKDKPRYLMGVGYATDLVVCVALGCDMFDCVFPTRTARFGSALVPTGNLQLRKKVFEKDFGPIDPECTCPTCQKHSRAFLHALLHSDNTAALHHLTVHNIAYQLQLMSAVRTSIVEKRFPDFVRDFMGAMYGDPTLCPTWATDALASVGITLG
T1 sequence (Q9H974 whole entry partner): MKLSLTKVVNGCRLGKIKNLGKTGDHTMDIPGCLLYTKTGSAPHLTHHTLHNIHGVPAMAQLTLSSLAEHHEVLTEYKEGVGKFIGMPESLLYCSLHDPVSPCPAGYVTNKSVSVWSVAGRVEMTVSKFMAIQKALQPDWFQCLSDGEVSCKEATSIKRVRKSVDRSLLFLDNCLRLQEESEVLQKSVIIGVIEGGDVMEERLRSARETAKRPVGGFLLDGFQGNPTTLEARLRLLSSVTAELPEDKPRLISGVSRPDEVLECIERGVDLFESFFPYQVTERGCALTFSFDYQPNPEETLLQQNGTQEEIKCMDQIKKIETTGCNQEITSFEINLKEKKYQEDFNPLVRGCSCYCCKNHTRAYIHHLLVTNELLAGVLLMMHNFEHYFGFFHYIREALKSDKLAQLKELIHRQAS
Nature of the assay: [8-14C] guanine displacement assay (tRNA*). The assay is classed as biochemical. The conditions noted are these: 50 μM compound, 100 nM hQTRT1:hQTRT2, 30 mins at 37° C.; background ≤2%; ≥5% counts as positive substrate for TGT. How it is done:
Compounds capable of acting as a queuine-tRNA ribosyltransferase enzyme complex substrate may be identified by use of a displacement assay as described below:
Production of [8-^14C] Guanine Labeled tRNA (tRNA*)
Before adding the 8-[^14C] guanine solution to the reaction the solution was neutralised with an equal volume (vol/vol) 0.01 M NaOH, as the [8-^14C] Guanine is supplied in 0.01 M HCl aqueous solution. In vitro synthesised human tyrosyl tRNA was prepared by T7 transcription in ultrapure nuclease-free water as described previously (Alqasem et al., 2020). Recombinant human QTRT1 enzyme containing an N-terminalpolyhistidine tag and human QTRT2 containing a C-terminal TEV-Strep-Tag®II tag were produced in BL21(DE3) tgt::Kmr cells as described previously (Alqasem et al., 2020).
The reaction was incubated for 1 hour at 37° C. […] The tRNA* pellet was resuspended in 30 μL nuclease-free water and the concentration measured spectrophotometrically at A260. […]
After 30 mins the reactions were quenched by mixing with 2.5 ml ice-cold 10% trichloroacetic acid (TCA) and placed on ice for one hour to precipitate the tRNA. […] The vacuum manifold was disassembled, the filters recovered and dried again at room temperature before being placed in scintillation vials containing 10 ml of Ecoscint A and radioactivity levels measured by scintillation counting. […]
For `Nc1nc2[nH]cc(CN[C@H]3C=C[C@H](O)[C@@H]3O)c2c(=O)[nH]1` [queuine base, queuine], the “displacement of the [14C] guanine” value is reported as above 98%.

Another assay has as its system RA synovial primary fibroblasts (RASFCs). Put plainly: Synovial fibroblast assay, IL-6 ELISA on TNF-treated RASFC supernatants. The format is cell-based, human. The conditions noted are these: 200 μm compound, TNF 10 ng/ml, supernatants at 72 hr, n=3 RASFCs, DMSO vehicle = 100%. How it is done:
To assess the compounds in human rheumatoid arthritis samples the following protocol was employed:
Isolation of Primary Fibroblasts (RASFCs): RA synovial biopsies were digested with 1 mg/ml collagenase type 1 (Worthington Biochemical, Freehold, NJ, USA) in RPMI-1640 (Gibco-BRL, Paisley, UK) for 4 hr at 37° C. in humidified air with 5% CO2. Dissociated cells were grown to confluence in RPMI 1640, 10% FCS (Gibco-BRL), 10 ml of 1 mmol/l HEPES (Gibco-BRL), penicillin (100 units/ml; Bioscience), streptomycin (100 units/ml; Bioscience) and fungizone (0.25 μg/ml; Bioscience) before passaging. Cells were used between passages 3-8.
Compounds (200 μm) were Tested on n=3 RASFCs
RASFCs were grown to 80% confluency in 48 well plates. RASFCs were treated with TNF (10 ng/ml) in the presence of 200 μm of each compound. Media was replaced after 24 h and fresh media and compound was added. Cell supernatants were collected at 72 hr time point. DMSO treated cells were used as a vehicle control (Red dotted line represents DMSO control). IL-6 ELISA: Levels of pro-inflammatory cytokine IL6 were measured in cultured RASFC supernatants by specific ELISA (R&D systems, UK) according to manufacturer's conditions.
This assay measures the production of IL-6 as an indication of immune system activation: the lower the value the better from the point of view of alleviating RA symptoms. All compounds of the invention show an effect compared to the DMSO vehicle that represents no treatment. […]
With `Cl.Nc1nc2[nH]cc(CNCC[C@@H](O)c3ccccc3)c2c(=O)[nH]1` [Example 12, (R)-N-((2-amino-4-oxo-4,7-dihydro-3H-pyrrolo[2,3-d]pyrimidin-5-yl)methyl)-3-hydroxy-3-phenylpropan-1-aminium chloride], the “Level of IL6 expression compared to vehicle” value (from here on “Level … compared to vehicle”) is “Reduction to 55%”.

As to `Cl.Nc1nc2[nH]cc(CNCCNc3ccccc3)c2c(=O)[nH]1` [Example 5, N-((2-amino-4-oxo-4,7-dihydro-3H-pyrrolo[2,3-d]pyrimidin-5-yl)methyl)-2-(phenylamino)ethan-1-aminium chloride], the “Level … compared to vehicle” value is listed as “Reduction to 48%”.

For the compound `Cl.Nc1nc2[nH]cc(CNCCC(=O)c3ccccc3)c2c(=O)[nH]1` [Example 7, N-((2-amino-4-oxo-4,7-dihydro-3H-pyrrolo[2,3-d]pyrimidin-5-yl)methyl)-3-oxo-3-phenylpropan-1-ammonium chloride], the “Level … compared to vehicle” value is “Reduction to 32%”.

As to `Cl.Nc1nc2[nH]cc(CNCCC(c3ccccc3)c3ccccc3)c2c(=O)[nH]1` [Example 10, N-((2-amino-4-oxo-4,7-dihydro-3H-pyrrolo[2,3-d]pyrimidin-5-yl)methyl)-3,3-diphenylpropan-1-ammonium chloride], the “Level … compared to vehicle” value is “Reduction to 56%”.

Take `Cl.Nc1nc2[nH]cc(CNCC[C@H](O)c3ccccc3)c2c(=O)[nH]1` [Example 13, (S)-N-((2-amino-4-oxo-4,7-dihydro-3H-pyrrolo[2,3-d]pyrimidin-5-yl)methyl)-3-hydroxy-3-phenylpropan-1-aminium chloride]: the “Level … compared to vehicle” value is recorded as “Reduction to 67%”.

On to `CC(C)(CCNCc1c[nH]c2nc(N)[nH]c(=O)c12)c1ccccc1.Cl` [Example 1, N-((2-amino-4-oxo-4,7-dihydro-3H-pyrrolo[2,3-d]pyrimidin-5-yl)methyl)-3-methyl-3-phenylbutan-1-ammonium chloride], for which the “Level … compared to vehicle” value is recorded as “Reduction to 37%”.

With `C[C@@H]1CCN(C(=O)CC#N)C[C@@H]1N(C)c1ncnc2[nH]ccc12` [Positive control (Tofacitinib), Tofacitinib, reference compound], the “Level … compared to vehicle” value is on record as “Reduction to 57%”.

The values are drawn from patent publication US20230295165A1, “COMPOUNDS” (The Provost, Fellows, Foundation Scholars, and the other …, priority 2020, published 2023).
